Starred links: 1 amine or outer side, 2 acyl side, 3 side chain; linkers in the order of their positions; H or OH if unused. Residues, ends and D or L forms follow the SMILES beside them. CO = O=C([*:1])[*:2]
System: SARS‐CoV‐2 spike (delta/omicron variant) pseudotyped particle
Experiment: microbe, parasite or virus in culture
Type: cell-based
Settings: for EC50: Severe acute respiratory syndrome coronavirus 2, A549-hACE2-TMPRSS2, read-out: EC50 SARS-CoV-2 entry inhibition
[1] = Severe acute respiratory syndrome coronavirus 2, A549-hACE2-TMPRSS2, read-out: SARS-CoV-2 viral entry inhibition

| Compound | EC50 | inhibition at 100 µM [1] | inhibition at 50 µM [1] |
| --- | --- | --- | --- |
| CN1C2CCC1CC(OC(c1ccc(F)cc1)c1ccc(F)cc1)C2 (stereo not shown) [AHN 1‐055, difluorobenztropine] | > 50000 nM |  |  |
| CC(C)[C@H](NC(=O)[C@H](CCCNC(=N)N)NC(=O)N[C@@H](Cc1ccccc1)C(=O)O)C(=O)N[C@H](C=O)CCCNC(=N)N [antipain, L‐Phe‐CO‐L‐Arg‐L‐Val‐L‐Arg‐H] ({Phe-CO}-Arg-Val-Arg-aldehyde) |  | 81% |  |
| CN(C)C(=O)COC(=O)Cc1ccc(OC(=O)c2ccc(NC(=N)N)cc2)cc1 [camostat] | 980 nM |  | 97% |
